Assay results taken from patent publication US7323541B2, “Polypeptide DNA thereof and use of the same” (Takeda Pharmaceutical Company Limited, priority 2001, dated 2008).
Changes are numbered by the printed parent chain. Where no end group is shown, it is not given here.

Columns and labels:
[1] = target: T1, TGR23-1 expressing CHO cells (Homo sapiens, UniProt Q6W5P4); assay: Intracellular Ca ion concentration increasing activity using FLIPR; format: cell-based; conditions: variety of concentrations
T1 construct: the clones having the cDNA of TGR23-1, which is contained in pTB2173, were selected; expressed in transfected cells; host or cells: hamster CHO/dhfr- cells, vector pAKKO-111H (pAKKO-TGR23-1), clones No. 49 and No. 52
T1 sequence (Q6W5P4 1-371): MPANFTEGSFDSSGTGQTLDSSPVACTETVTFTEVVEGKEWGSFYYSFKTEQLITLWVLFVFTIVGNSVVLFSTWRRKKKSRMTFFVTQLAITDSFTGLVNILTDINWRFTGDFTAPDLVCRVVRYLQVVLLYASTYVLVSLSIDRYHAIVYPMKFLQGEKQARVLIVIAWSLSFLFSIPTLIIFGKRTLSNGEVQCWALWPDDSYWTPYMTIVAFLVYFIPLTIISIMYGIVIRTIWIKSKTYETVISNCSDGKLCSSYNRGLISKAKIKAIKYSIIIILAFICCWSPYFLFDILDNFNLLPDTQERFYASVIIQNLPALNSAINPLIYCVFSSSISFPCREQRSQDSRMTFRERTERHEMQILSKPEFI
Protocol: (§1) An enhancing activity of intracellular Ca^2+ release was assayed using FLIPR (Molecular Devices, Inc.). The CHO/TGR23-2 cells prepared in Example 1 and selected in Example 2 were plated on 96-well plate at 3×10^4 cells/well and cultured for 24 hours. A loading buffer was prepared by adding 1 vial of Fluo 3-AM to 10 ml of Hanks' solution (pH7.4) containing 2.5 mM Probenecid and 20 mM HEPES (hereafter, Hanks' solution (pH7.4) containing 2.5 mM Probenecid and 20 mM HEPES may be referred to as a washing buffer). The culture medium was discarded from the culture plate and 100 μl/well of the loading buffer were added to the cells. Then, the cells were incubated for 60 minutes in the incubator. After the loading buffer was removed from the culture plate and the cells were washed with the washing buffer, the plate was put in place of FLIPR. A sample was prepared by adding a sample buffer, which 2 mg/ml BSA and 1 mg/ml CHAPS were added to the washing buffer, to lyophilized product, stirring and treating by ultrasonication for 30 minutes, and transferred to 96-well sample plate. This sample plate was also put in place for assay. The enhancing activity of intracellular Ca^2+ release was measured as an increase of fluorescent intensity, which is raised by addition of the sample. Human TGR23-2 ligand (1-20) obtained in Example 17 was administered to TGR23-1 expressing CHO cells and TGR23-2 expressing CHO cells at a variety of concentrations according to the method described in Example 5, and the increasing activity of intracellular Ca ion concentration was determined using FLIPR. […] Rat TGR23-2 ligand (1-18) prepared by the method described in Example 19 and mouse TGR23-2 ligand (1-20) prepared by the method described in Example 20 were administered to TGR23-1 expressing CHO cells and TGR23-2 expressing CHO cells at a variety of concentrations according to the method described in Example 5, and the increasing activity of intracellular Ca ion concentration was determined using FLIPR.

[2] = target: T2, TGR23-2 expressing CHO cells (Homo sapiens, UniProt Q6W5P4, N107I/Q344R); assay: as above; format: cell-based; conditions: variety of concentrations
T2 construct: the clones having the cDNA of TGR23-2, which is contained in pTB2174, were selected; expressed in transfected cells; host or cells: hamster CHO/dhfr- cells, vector pAKKO-111H (pAKKO-TGR23-2)
T2 sequence (Q6W5P4 1-371 N107I/Q344R): T1 sequence (Q6W5P4 1-371) with N107I, Q344R
Protocol: as §1

[3] = target: T3, membrane fraction of TGR23-2 expressing CHO cells (Homo sapiens, UniProt Q6W5P4, N107I/Q344R); assay: GTPγS binding activity in membrane fraction; format: biochemical
T3 construct: the clones having the cDNA of TGR23-2, which is contained in pTB2174, were selected; expressed in transfected cells; host or cells: hamster CHO/dhfr- cells, vector pAKKO-111H (pAKKO-TGR23-2)
T3 sequence (Q6W5P4 1-371 N107I/Q344R): T1 sequence (Q6W5P4 1-371) with N107I, Q344R
Protocol: Enhancing activity of binding of [^35S]-Guanosine 5′-(γ-thio) triphosphate in the membrane fraction of TGR23-2 expressing CHO cells was measured by the following method. Firstly, it is described about preparation of membrane fraction. Twenty (20) ml of homogenation buffer (10 mM HEPES (pH7.3), 5 mM EDTA, 0.52 mM PMSF, 10 μg/ml pepstatin, 8 μg/ml E64, 20 μg/ml leupeptin) was added to 8×10^7 of TGR23-2 expressing CHO cells, and the cells were disrupted using Polytron (12,000 rpm, 30 seconds×3 times). The cell-disrupted fluids were centrifuged (1,000 g for 15 minutes) to get supernatant. Subsequently the supernatant was ultracentrifuged (Beckman type 30 rotor, 30,000 rpm, one hour), and the precipitate obtained was collected as a membrane fraction of TGR23-2 expressing CHO cells. The GTPγS binding activity was assayed as follows. The membrane fraction of TGR23-2 expressing CHO cells was diluted with membrane dilution buffer (50 mM Tris-HCl buffer (pH7.4), 5 mM MgCl2, 150 mM NaCl, 0.03% NaN3, 0.1% BSA, 1 μM GDP) to get cell membrane fraction solution for assay at the protein concentration of […]. Two (2) μl of 50 nM [^35S]-guanosine 5′-(γ-thio) triphosphate (NEN) and sample were added to 200 μl of cell membrane fraction solution for assay, and the mixture was incubated at 25° C. for one (1) hour. The mixture was filtered, and the filter was washed twice with 1.5 ml of washing buffer (50 mM Tris-HCl buffer (pH7.4), 5 mM MgCl2, 1 mM EDTA, 0.03% NaN3, 0.1% BSA). Then the radioactivity on the filter was measured by liquid scintillation counter. Human TGR23-2 ligand (1-20) prepared by the method described in Example 17, rat TGR23-2 ligand (1-18) prepared by the method described in Example 19 and mouse TGR23-2 ligand (1-20) prepared by the method described in Example 20 were administered to TGR23-2 expressing CHO cells at a variety of concentrations according to the method described above, and the GTPγS binding activity was determined.

[4] = target: T2, TGR23-2 expressing CHO cells; assay: Enhancing activity of intracellular cAMP production; format: cell-based; conditions: with forskolin
Protocol: The CHO/TGR23-2 cells prepared in Example 1 and selected in Example 2 were plated on 24-well plate at 7×10^4 cells/well and cultured for 48 hours. The cells were washed with αMEM medium (pH7.5) containing 0.2 mM 3-isobutyl-methylxanthine, 0.05% BSA and 20 mM HEPES (hereafter, αMEM medium (pH7.5) containing 0.2 mM 3-isobutyl-methylxanthine, 0.05% BSA and 20 mM HEPES may be referred to as a reaction buffer). Subsequently, 0.5 ml of the reaction buffer was added, and the solution was incubated for 30 minutes in the incubator. The reaction buffer was removed and 0.25 ml of the reaction buffer was freshly added to the cells. Then, the cells were admixed with a sample and 0.25 ml of the reaction buffer containing 2 μM forskoline, and incubated at 37° C. for 30 minutes. Intracellular cAMP was extracted by removing the reaction solution and adding 0.5 ml of the solution for cell lysis attached with cAMP EIA Kit (Applied Biosystems). The cAMP level in the extract was quantified with the same kit. Based on this measured value, a calculation was made using the following formula, and the enhancing/inhibiting activity for cAMP production was represented by % of control. The activity of the sample-adding group was calculated using a control value configured in each plate. % of control=(X−C)/(T−C)×100
X: The cAMP level in the sample-adding group
T: The means of the cAMP level in 3 wells of positive control (no sample, with stimulus of forskoline)
C: The means of the cAMP level in 3 wells of negative control (no sample, without stimulus of forskoline)
In addition, for the same sample, in accordance with the method shown in Example 4, an arachidonic acid metabolite releasing activity was assayed.
Four microlitters each of the above-mentioned HPLC active fractions of rat whole brain extracts (Fraction numbers 18, 20 and 22 to 23) was added to 100 μl of 0.2 M ammonium acetate and incubated at 37° C. for 2 hours with 3 μg of Pronase. Subsequently, Pronase added, was inactivated by heating in boiling water for 10 minutes. To this solution, one ml of distilled water containing 0.05 mg of BSA and 0.05 mg of CHAPS was added. Further, it was lyophilized. For the lyophilized sample, enhancing activity for intracellular cAMP production was assayed by adding to TGR23-2 expressing CHO cells according to the method shown in Example 3.
Human TGR23-2 ligand (1-20) prepared by the method described in Example 17 was administered to TGR23-1 expressing CHO cells and TGR23-2 expressing CHO cells at a variety of concentrations according to the method described in Example 3, and the enhancing activity of intracellular cAMP production was determined.
Further, human TGR23-2 ligand (1-20) and rat TGR23-2 ligand (1-18) prepared by the method described in Example 19 were administered to TGR23-1 expressing CHO cells and TGR23-2 expressing CHO cells at a variety of concentrations, and the same assay as described above was carried out under the condition of no forskolin. A calculation was made using the following formula, and the enhancing activity for cAMP production was represented by % of control: % of control=X/C×100;
X: The cAMP level in the sample-adding group; and
C: Control (no sample, without stimulus of forskoline).

Row | GTPγS binding activity [3] | Sequence | increase of intracellular Ca ion concentration [1] | increase of intracellular Ca ion concentration [2] | enhancing activity of intracellular cAMP production [4]
1 | enhance the GTPγS binding activity | SFRNGVGSGAKKTSFRRAKQ [mouse TGR23-2 ligand (1-20)] | clearly enhance an increase of intracellular Ca ion concentration | clearly enhance an increase of intracellular Ca ion concentration | 
2 |  | SFRNGVGSGVKKTSF (Rat) [rat TGR23-2 ligand (1-15)] |  |  | specifically exhibits an enhancing activity for cAMP production
3 |  | SFRNGVGSGVKKTS (Rat) [rat TGR23-2 ligand (1-14)] |  |  | specifically exhibits an enhancing activity for cAMP production
